Reference: a melting point compilation (Tetko et al.; mined from patent text by program, amines drawn as free bases though some values may be those of a salt)
Residues, ends and D or L forms follow the SMILES beside them. *: point of attachment. Cbz = O=C(OCc1ccccc1)*

SMILES | melting point
CCCC[C@H](NS(=O)(=O)c1ccc(Br)cc1)C(=S)Nc1ccc(CCC(=O)O)cc1 | 174 to 176 °C
C#CC1(O)C(CO)OC(n2ccc(N)nc2=O)C1O (stereo not drawn) | 233 to 235 °C
FC(F)(F)c1cc(Cl)c(-c2nc(Br)c(Br)[nH]2)c(Cl)c1 | 328 to 329 °C
Cc1cccc(NC(=O)NCCC(=O)N(CC(=O)OC(C)(C)C)c2ccccc2)c1 | 142 °C
Fc1ccc(-c2cn([C@H]3CN4CCC3CC4)nn2)cc1 | 139 °C
O=c1c(Br)c(OCc2cccc(Cl)c2)ccn1Cc1cccc(F)c1 | 149 to 153 °C
Nc1c2c(=O)c3ccccc3c(=O)c2c(N)c2c(=O)n(CCCO)c(=O)c12 | 261 to 262 °C
COc1ccccc1OC(=O)CNC(=O)C(C)SC(=O)c1cccs1 (stereo not drawn) | 90.5 to 92 °C
CCCCOc1cccc(C[C@H](NC(=O)c2coc(NS(C)(=O)=O)n2)[C@H](O)CNCc2cccc(CC)c2)c1 | 78 to 80 °C
Oc1cc2cc(C3CCCCC3)sc2c(Cl)c1Cl | 59 to 60 °C
O=C(O)C1(CP(=O)(OCc2ccccc2)OCc2ccccc2)CCCC1 | 89 to 92 °C
CCc1cc(C)cc(CC)c1C1=C(OCc2ccccc2)C2CC(C=CC(C)=O)CC2C1=O (stereo not drawn) | 60 °C
Cc1cc(C(=O)Nc2c(C)cccc2O)c(Br)s1 | 164 to 167 °C
O=C(O)c1cccc(-c2cccc3c2CN(Cc2cccc(C(F)(F)F)c2)C3=O)c1 | 190 to 191 °C
Cc1cc(Cl)nnc1-c1ccc(C#N)cc1 | 218 to 220 °C
CCCC1=C(C#N)C(c2ccccc2Cl)c2c(n[nH]c2C(C)C)N1 (stereo not drawn) | > 270 °C
COC1=C(OC)C(=O)C2=C(CC(CCCCCCCC(N)=O)(C(N)=O)C2)C1=O | 140 to 143 °C
CN(Cc1ccc2nsnc2c1)C1CCN(C(=O)c2ccc(Nc3nccc(Nc4ccc(F)cc4)n3)cc2)CC1 | 191 to 192 °C
O=C(O)c1c(F)c(OC(F)F)c(F)c(F)c1[N+](=O)[O-] | 77 to 80 °C
COC(=O)[C@H]1CO[C@@H](C(C)(C)C)N1C(=O)Cl | 78 °C
CON=C(Cn1nnnc1S)C(=O)O | 84 to 86 °C
CCCOc1ccccc1-c1nc2nc(NC3CC3)ncc2c(=O)[nH]1 | 208 °C
COc1ccc(S(=O)(=O)N2C(=O)C(c3ccccc3OC)(N3C[C@H](OCC(=O)NC(C)(CO)CO)C[C@H]3C(=O)N(C)C)c3cc(Cl)ccc32)c(OC)c1 (stereo partly drawn) | 154 °C
O=C(c1ccccc1Cl)c1ccccc1[N+](=O)[O-] | 76 to 79 °C
CCN(CC)CCOc1ccc(Nc2ncc3c(n2)N(CC)C(=O)N(c2c(Cl)cccc2Cl)C3)cc1 | 85 °C

SMILES | melting point
COC(=O)C=C(C(=O)OC)N1CCC23C=CC(O)CC2Oc2c(OC)ccc(c23)C1 (stereo not drawn) | 121 to 122 °C
Cc1nc(NC(=O)N(C)C)sc1C | 202 to 204 °C
CCC(Cc1ccc(OC)c(OCCc2ccccc2)c1)NC(=O)OC(C)(C)C (stereo not drawn) | 88.5 to 89.5 °C
CC(=O)N1CC(CCN2CC=C(c3c[nH]c4cc(Cl)ccc34)CC2)c2cc(C)ccc21 (stereo not drawn) | 179 to 181 °C
N#Cc1c(N2CCCC2)cc(-c2ccccc2)c2c1Cc1ccccc1-2 | 210 to 212 °C
OCCNc1cc(Nc2ccc(Oc3ccccc3)cc2)ncn1 | 154 to 156 °C
CC(=O)N=C(O)c1cc(C(O)=NCCOC(C)=O)c(C(=O)O)cc1C(=O)O | 176 to 178 °C
CCCCCc1c(-c2ccc3cc(O)ccc3c2)n(Cc2ccccc2)c2ccccc12 | 96 to 100 °C
C=CCOc1ccc(Nc2nccc(-c3cccnc3)n2)cc1 | 105 to 108 °C
Cc1c(Cl)nnc2c1CN(C(=O)c1ccccc1F)CC2 | 151 to 153 °C
COc1ccc(OC)c(CC(=O)CN2N=C(c3ccc(Cl)cc3)c3ccccc3-n3c(C)nnc32)c1 | 217 to 218 °C
CCCN1CC(C)=CC2=C1N1CN(OC)C=C1N=N2 | 163 to 165 °C
COc1nc(C)c(C)cc1N | 56 to 58 °C
COc1ccc(OC(=O)c2ncn3c2[C@@H]2CCCN2C(=O)c2c(Cl)cccc2-3)cc1 | 210 to 211 °C
CCc1cc2c(-c3ccccc3OC)c(NC(=O)Nc3cc(C)c(OC(C)=O)c(C)c3)cnc2s1 | 217 to 218 °C
OC1(C#Cc2ccc(-c3ccccc3)cc2)CN2CCC1CC2 (stereo not drawn) | 217 to 218 °C
Cc1c(NC(=O)c2ccc(CC(=O)C3CC3)cc2)ccc2cc(CN3CCCC3)cnc12 | 200 to 201 °C
C(#COCC1CCN(Cc2ccccc2)CC1)Cc1ccccc1 | 120 to 123 °C
CNC(=O)c1cc(C)ccc1Nc1nc(Nc2ccc3c(c2)CCN(CCOC)CC3)ncc1Cl | 210 to 212 °C
CC(=O)NCC1CC1c1ccc(Cl)c2nn(C)cc12 (stereo not drawn) | 153 to 155 °C
COc1ccc2c(c1Cl)c(CC(=O)O)c(C)n2C(=O)c1ccc(Cl)s1 | 169 °C
Cc1ccc(NC(=O)Oc2ccc3c(c2)NCCC3)cc1 | 128 °C
CN(C(=O)Nc1ccccc1CCc1cc(C(C)(C)C)c(O)c(C(C)(C)C)c1)C1CCN(Cc2ccc(F)cc2)CC1 | 177 to 178 °C
CC(=O)OCC1OC(n2c(=O)sc3c(Cl)nc(Cl)nc32)C(OC(C)=O)C1OC(C)=O (stereo not drawn) | 125 to 126 °C
CCOC(=O)c1n[nH]c2c(=O)[nH]c3cc(Cl)ccc3c(=O)c12 | 290 °C

SMILES | melting point
Cc1cc(C2C(=O)Oc3c2cc(C(C)(C)C)cc3C(C)(C)C)cc(C)c1O (stereo not drawn) | 225 to 228 °C
COc1ccc(C(=O)C=Cc2ccc(N(C)C)cc2)c(OC)c1OC | 88 to 89 °C
FC(F)(F)c1cccc(C2OC3(CCNCC3)N3CCCCC23)c1 (stereo not drawn) | 158 to 160 °C
COCc1nc2c(NCc3c(C)cccc3C)cc(Br)cc2n1C | 143 to 145 °C
C#CC1(O)CCN(CC=C(c2ccccc2)c2ccccc2)CC1 | 122 to 123 °C
Cc1ccccc1-c1ccc2c(c1)c(C(=O)C(=O)O)cn2Cc1ccc(C(C)(C)C)cc1 | 97 to 98 °C
COc1cnc[nH]c1=O | 206 to 208 °C
CCOC(=O)Cn1cc2c(n1)CCN(C(=O)OC(C)(C)C)C2 | 90 to 91 °C
Cc1n[nH]c(-c2ccc(Br)cc2)c1NC(=O)c1ccccc1 | 273 to 274 °C
CN1CCN(c2cc(Br)cc3c2c(=O)n(Cc2ccccc2Cl)c(=O)n3Cc2ccccc2)CC1 | 104 to 108 °C
O=CNCc1ccc(CN2CCN(c3ccccc3)CC2)cc1 | 108 to 109 °C
O=C(O)[C@@H]1CS[C@@H](CS)C1 | 54.3 to 55.9 °C
CCCCCN1C(=O)C(c2ccc3c(c2)OCO3)(c2cc3c(cc2O)OCO3)c2ccccc21 (stereo not drawn) | 75 to 76 °C
O=C(NCc1ccc(Cl)cc1)c1cnc2c(F)cc(O)cc2c1O | 310 to 313 °C
CCCc1c(OCCOCCOc2ccc3ccc(OCC(=O)O)cc3c2C(C)=O)ccc(C(C)=O)c1O | 121 to 122 °C
C[C@H](NC(=O)[C@H](C)NC(=O)OCc1ccccc1)C(=O)O (Cbz-Ala-Ala-OH) | 203 to 205 °C
CC(C)(C)C(NC(=O)c1ccc(-c2ccco2)cc1)Nc1c(Nc2cccnc2)c(=O)c1=O (stereo not drawn) | 230 to 232 °C
CCCc1c2c(nc3cc(F)c(F)cc13)-c1cc3c(c(=O)n1C2)COC(=O)CC3(O)CC (stereo not drawn) | 250 °C
COc1ccc2sc(=O)[nH]c2c1 | 168 to 170 °C
O=C(CCC(F)(F)F)Nc1ccccc1 | 187 °C
CC(C)Cc1nc2ccc(C#N)cc2c(-c2ccccc2)c1CN | 128 to 130 °C
O=C(O)C1=Cc2cc(Cl)ccc2NC1C(F)(F)F (stereo not drawn) | 133 to 134 °C
CCOC(=O)C1=C(N)N=C(N(C)C)C(C(=O)OCC)C1c1cccc([N+](=O)[O-])c1 (stereo not drawn) | 149 °C
O=C(NCCCC[C@H](Nc1nc2ccc(Cl)cc2cc1C(=O)O)C(=O)O)OCc1ccccc1 | 152 to 154 °C
COc1cc(F)ccc1Oc1c(Cl)ncnc1NS(=O)(=O)c1ccc(C(C)(C)C)cc1 | 146 to 147 °C

SMILES | melting point
CC(C)(C)OC(=O)N1CCC(OCc2ccccc2)C1CC(O)Cn1cnc2ccc(F)c(F)c2c1=O (stereo not drawn) | 218 °C
CCOC(=O)c1cnc2n(c1=O)-c1ccccc1N(C(=O)OCC)C2 | 140 to 142 °C
CCOC(=O)c1n[nH]cc1[N+](=O)[O-] | 128 to 130 °C
CCOC(=O)C(C)(C)c1cn2nc(CCCCN3CCN(C(c4ccccc4)c4ccccc4)CC3)ccc2n1 | 105 to 106 °C
N#CC(N)COc1ccccc1 (stereo not drawn) | 65 °C
CCC(CC)C(=O)Nc1ccc2ncnc(NC=C(C(=O)OC)C(=O)OC)c2c1 | 221 to 225 °C
Cc1ccccc1CCNC(=O)c1ccc(Br)cc1 | 102 to 103 °C
CCCCc1nc2cc(Cl)cc(C(=O)OC)c2n1Cc1ccc(-c2ccccc2-c2nnn[nH]2)cc1 | 132 to 133 °C
CCOCc1cc(C(C)(C)C)cc(COCC)c1SSc1c(COCC)cc(C(C)(C)C)cc1COCC | 62 to 63 °C
COCC1CCCN(c2ccnc3sc(C(N)=O)c(N)c23)C1 (stereo not drawn) | 229 to 230 °C
CNC(=O)ON=C1Oc2ccccc2OC1(C)C | 174 to 176 °C
Cn1ccnc1-c1ccc(-c2cnc([C@H](Cc3ccccn3)N(C=O)OC(C)(C)C)n2C)cc1 | 160 to 163 °C
CC(=O)OC1NC(=O)C1C(C)O[Si](C)(C)C(C)(C)C(C)C (stereo not drawn) | 80 to 81 °C
C=CCCO[C@@H](Cc1ccc(OCCc2nc(C(C)(C)C)oc2C)c2ccsc12)C(=O)O | 70 to 71 °C
O=C(O)c1cn(CCO)c2cc(Cl)c(F)cc2c1=O | 266 °C
CC(C)(Cn1cncn1)C(O)(CCc1ccc2ccccc2c1)Cn1cncn1 (stereo not drawn) | 77 to 80 °C
CCOC(=O)Cn1c(=S)n(Cc2ccc(Cl)c(Cl)c2)c(=S)c2ccccc21 | 155 to 156 °C
CCOC(=O)c1ccc2c(CCN)c[nH]c2c1 | 169 to 172 °C
Nc1cc(-c2nnc(CCc3cccc(C(F)(F)F)c3)o2)ccn1 | 161 to 163 °C
COc1cccc(S(=O)(=O)c2ccc3[nH]c(C)c(CCNC(=O)OC(C)(C)C)c3c2)c1 | 170 to 173 °C
CNC1c2ccccc2-c2[nH]c(=O)c3nccn3c21 (stereo not drawn) | 184 °C
Nc1nc2[nH]c(CCCc3cc(C(=O)N[C@@H](CCC(=O)O)C(=O)O)cs3)cc2c(=O)[nH]1 | 191 to 192 °C
CCN(Cc1cc(Br)ccc1OCC1CC1)c1ccc(C(=O)O)nn1 | 73 to 80 °C
